The record followed here is publication PMC11467737, “Osteocalcin binds to a GPRC6A Venus fly trap allosteric site to positively modulate GPRC6A signaling” (FASEB BioAdvances, 2024).

Assay [1] has as its system wild‐type (Gprc6a +/+) and global knock out (Gprc6a −/−) mice. The assay is described as follows: Serum FGF-21 (ELISA) after intraperitoneal injection in mice. Type of assay: in vivo, mouse. To be noted: 2 nmol/g IP, 24 h, n ≥ 5. The procedure:
(§1) 8‐week‐old wild‐type (Gprc6a ^ +/+ ) and global knock out (Gprc6a ^ −/− ) mice were injected intraperitoneally with Ocn 20–29 (2 nmol/g body weight), or vehicle (saline; 10 μL/g body weight). Serum was collected at 24 h after intraperitoneal injection. Blood glucose levels were measured by using blood glucose strips and the Accu‐Check glucometer as described.[7], [31] A mouse IL‐6 ELISA Kit was purchased from Invitrogen (Waltham, MA, USA). Rat/Mouse FGF‐21ELISA Kit was obtained from Millipore Sigma (Burlington, MA, USA).
(§2) The Gprc6a ^ −/− mouse model was created by replacing exon 2 of the GPRC6A gene with the hygromycin resistance gene, as described previously.[32] Mice were maintained and used in accordance with recommendations as described (National Research Council 1985; Guide for the Care and Use of Laboratory Animals Department of Health and Human Services Publication NIH 86–23, Institute on Laboratory Animal Resources, Rockville, MD) and following guidelines established by the University of Tennessee Health Science Center Institutional Animal Care and Use Committee. The animal study protocol was approved by the institutional review boards at University of Tennessee Health Science Center Institutional Animal Care and Use Committee.

Assay [2] shares this test system. The assay is described as follows: Serum IL-6 (ELISA) after intraperitoneal injection in mice. Type of assay: in vivo, mouse. To be noted: 2 nmol/g IP, 24 h, n ≥ 5. The procedure: as §1, §2
On the technique in general: An ELISA detects its analyte on a solid surface through an enzyme-linked reagent.

For assay [3], the target named is T1, human GPRC6A isoform 3 (Homo sapiens, UniProt Q5T6X5).
T1 construct: expressed in transfected cells; host or cells: HEK-293
T1 sequence (Q5T6X5 19-855 isoform Q5T6X5-3 limits assumed): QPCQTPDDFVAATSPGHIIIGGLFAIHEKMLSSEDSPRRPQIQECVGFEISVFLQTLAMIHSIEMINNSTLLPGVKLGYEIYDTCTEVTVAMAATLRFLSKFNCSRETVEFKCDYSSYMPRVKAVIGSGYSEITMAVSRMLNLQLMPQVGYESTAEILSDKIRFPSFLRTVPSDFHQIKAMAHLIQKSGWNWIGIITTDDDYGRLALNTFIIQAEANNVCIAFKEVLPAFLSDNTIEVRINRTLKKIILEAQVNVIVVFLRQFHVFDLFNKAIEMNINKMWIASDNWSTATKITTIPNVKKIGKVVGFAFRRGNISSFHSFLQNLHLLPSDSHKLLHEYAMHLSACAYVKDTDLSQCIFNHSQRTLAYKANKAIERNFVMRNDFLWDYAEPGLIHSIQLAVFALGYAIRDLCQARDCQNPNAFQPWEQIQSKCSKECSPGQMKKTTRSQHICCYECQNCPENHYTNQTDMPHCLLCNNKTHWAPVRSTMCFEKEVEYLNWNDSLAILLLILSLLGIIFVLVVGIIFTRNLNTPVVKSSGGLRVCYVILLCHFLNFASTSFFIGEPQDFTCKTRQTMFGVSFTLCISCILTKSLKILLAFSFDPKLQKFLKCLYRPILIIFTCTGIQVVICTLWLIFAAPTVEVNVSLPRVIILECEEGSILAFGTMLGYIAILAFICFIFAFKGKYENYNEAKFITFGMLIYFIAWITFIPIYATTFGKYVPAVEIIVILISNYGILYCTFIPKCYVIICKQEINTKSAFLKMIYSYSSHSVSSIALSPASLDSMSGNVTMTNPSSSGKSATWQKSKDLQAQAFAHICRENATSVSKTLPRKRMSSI
The assay is described as follows: cAMP accumulation in HEK-293 cells transfected with human GPRC6A isoform 3. To be noted: isoform 3; Ocn 1.73-26.0 nM; 1 mM calcium; 40 min; Figure 2C. Type of assay: cell-based. The procedure:
(§3) HEK‐293 transfected with human GPRC6A isoform cDNA plasmids cells (10^5 cells/well)[30] were cultured in 24‐well plates in DMEM supplemented with 10% fetal bovine serum and 1% penicillin/streptomycin (100 U/mL of penicillin and 100 μg/mL of streptomycin) for 48 h followed by 4 h incubation in DMEM/F12 containing 0.1% BSA and 0.5 mM IBMX to achieve quiescence and preventing cAMP degradation. Quiescent cells were treated with vehicle control, various ligands at concentration as indicated for 40 min at 37°C. Then, the reaction was stopped, and the cells lysed with 0.5 mL 0.1 N HCl. cAMP levels were measured by using Cyclic AMP EIA kit (Cayman Chemical; Ann Arbor, MA, USA) following the manufacture's protocol.
For orientation: Cyclic AMP is a second messenger, typically raised through Gs and lowered through Gi signalling.

Assay [4] concerns the target T2, human GPRC6A isoform 2 (Homo sapiens, UniProt Q5T6X5).
T2 construct: expressed in transfected cells; host or cells: HEK-293
T2 sequence (Q5T6X5 19-751 isoform Q5T6X5-2 limits assumed): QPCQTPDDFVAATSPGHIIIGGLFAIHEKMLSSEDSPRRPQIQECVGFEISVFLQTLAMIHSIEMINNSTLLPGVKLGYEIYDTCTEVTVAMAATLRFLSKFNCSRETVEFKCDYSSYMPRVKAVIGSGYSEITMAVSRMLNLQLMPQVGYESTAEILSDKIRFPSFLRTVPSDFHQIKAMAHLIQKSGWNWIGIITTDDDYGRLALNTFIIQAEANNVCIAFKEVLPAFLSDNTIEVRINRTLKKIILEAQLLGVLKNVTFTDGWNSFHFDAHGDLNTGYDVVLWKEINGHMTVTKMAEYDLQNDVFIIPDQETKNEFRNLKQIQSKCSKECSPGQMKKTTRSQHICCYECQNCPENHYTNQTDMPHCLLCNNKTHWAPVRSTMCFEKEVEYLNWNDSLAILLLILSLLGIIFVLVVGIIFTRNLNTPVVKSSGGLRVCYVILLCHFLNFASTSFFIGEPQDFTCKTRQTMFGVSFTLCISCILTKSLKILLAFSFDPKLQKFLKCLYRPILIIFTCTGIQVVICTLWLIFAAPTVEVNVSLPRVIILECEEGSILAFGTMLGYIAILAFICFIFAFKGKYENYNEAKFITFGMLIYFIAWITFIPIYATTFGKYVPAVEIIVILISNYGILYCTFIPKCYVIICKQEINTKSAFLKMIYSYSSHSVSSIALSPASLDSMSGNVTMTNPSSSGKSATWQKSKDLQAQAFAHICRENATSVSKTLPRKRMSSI
The assay is described as follows: cAMP accumulation in HEK-293 cells transfected with human GPRC6A isoform 2. The assay is classed as cell-based. Particulars: isoform 2; Ocn 1.73-26.0 nM; 1 mM calcium; 40 min; Figure 2C. The procedure:
as §3

Assay [5] addresses T1, human GPRC6A isoform 3. Nature of the assay: ERK activation (ELISA) in HEK-293 cells transfected with human GPRC6A isoform 3. The assay is classed as cell-based. Particulars: Ocn 1.73-26.0 nM, 1 mM calcium, 15 min, Figure 2B. The procedure: (§4) All culture reagents were from Invitrogen (Waltham, MA, USA). Human embryonic kidney HEK‐293 cells were obtained from American Type Culture Collection and cultured in DMEM medium supplemented with 10% fetal bovine serum and 1% Penicillin/Streptomycin (P/S). Briefly, HEK‐293 cells transfected with/without human GPRC6A isoforms cDNA plasmids were starved by overnight incubation in serum‐free DMEM/F12 containing 0.1% bovine serum albumin (BSA) and stimulated with various ligands at different doses. […]

The target in assay [6] is T2, human GPRC6A isoform 2. Nature of the assay: ERK activation (ELISA) in HEK-293 cells transfected with human GPRC6A isoform 2. Type of assay: cell-based. To be noted: Ocn 1.73-26.0 nM, 1 mM calcium, 15 min, Figure 2B. The procedure: as §4

Bridge positions count the residues as written; N and C are the ends. Ends that are not written are not given here.

“REVCELNPDC (disulfide 4-10 (inferred)) [Ocn 20–29, synthesized human Ocn decapeptide fragment located in the middle of the protein]”: in assay [1] (Gprc6a −/− mice), the “Serum FGF-21 response” value is “lost”. Moreover, in assay [1] (wild-type Gprc6a +/+ mice), the “Serum FGF-21 level versus vehicle” value is on record as “significant increase”. The “Serum IL-6 response” value in assay [2] (Gprc6a −/− mice) is “lost”. The “Serum IL-6 level versus vehicle” value in assay [2] (wild-type Gprc6a +/+ mice) is listed as “significant increase”.
On to “osteocalcin (YLYQWLGAPVPYPDPLEPRREVCELNPDCDELADHIGFQEAYRRFYGPV; not fully specified; ends and bridges not checked; UniProt P02818 52-100, looked up) [Ocn 1–49, full human Ocn (49 aa) synthesized by BioMatik; methods also describe decarboxylated Ocn purified from bovine tibial bone, reference compound]”, for which the figures for the “Ocn-induced cAMP accumulation, dose response” value with human GPRC6A isoform 3 [3] and with human GPRC6A isoform 2 [4] were “maintained the cAMP response” and “complete loss of cAMP activation”, respectively. The entries for the “Ocn-induced ERK activation, dose response” value in the assay with human GPRC6A isoform 3 [5] and with human GPRC6A isoform 2 [6] were “attenuation of Ocn‐induced ERK stimulation” and “attenuated ERK response”, respectively.
